According to ChEMBL document CHEMBL3885881, “DrugMatrix”:

Organism: Rattus norvegicus
Assay: DrugMatrix - Regimen: Daily Repeat
Format: toxicity, organism-based, Sprague-Dawley
Set-up: regimen Daily Repeat, gender Male, age 6-8 weeks
Settings: in vivo, po, route oral GAVAGE, vehicle .5 % CMC; for ABSOLUTE BASOPHIL / BASOPHIL / EOSINOPHIL / ERYTHROCYTE COUNT / HEMATOCRIT / HEMOGLOBIN / LEUKOCYTE COUNT / LYMPHOCYTE / MEAN CORPUSCULAR HEMOGLOBIN / MEAN CORPUSCULAR HEMOGLOBIN CONCENTRATION / MEAN CORPUSCULAR VOLUME / MONOCYTE / NEUTROPHIL / PLATELET COUNT: tissue Blood; for ALANINE AMINOTRANSFERASE / ALKALINE PHOSPHATASE / ASPARTATE AMINOTRANSFERASE / BLOOD UREA NITROGEN / CHLORIDE / CHOLESTEROL / CREATINE PHOSPHOKINASE / CREATININE / GLUCOSE / PHOSPHORUS / POTASSIUM / SODIUM / TOTAL BILIRUBIN / TOTAL PROTEIN: tissue Plasma
[1] = 0 mg/kg, 72 h, dose level Control, time 3 day
[2] = 0 mg/kg, 120 h, dose level Control, time 5 day
[3] = 20 mg/kg, 72 h, dose level Low, time 3 day
[4] = 20 mg/kg, 120 h, dose level Low, time 5 day
[5] = 89 mg/kg, 72 h, dose level High, time 3 day
[6] = 89 mg/kg, 120 h, dose level High, time 5 day

CC(C(=O)O)c1ccc2oc(-c3ccc(Cl)cc3)nc2c1 (configuration not stated) [BENOXAPROFEN]
ABSOLUTE BASOPHIL [1]: 16.7 cells/µL
BASOPHIL [1]: 0.17%
EOSINOPHIL [1]: 0.62%
ERYTHROCYTE COUNT [1]: 6.55 x10E6/uL
HEMATOCRIT [1]: 42%
HEMOGLOBIN [1]: 13.48 G/DL
LEUKOCYTE COUNT [1]: 8.79 x10E3/uL
LYMPHOCYTE [1]: 76.98%
MEAN CORPUSCULAR HEMOGLOBIN [1]: 20.57 pg
MEAN CORPUSCULAR HEMOGLOBIN CONCENTRATION [1]: 32.08 G/DL
MEAN CORPUSCULAR VOLUME [1]: 64.1 fL
MONOCYTE [1]: 2.12%
NEUTROPHIL [1]: 19%
PLATELET COUNT [1]: 1432.17 x10E3/uL
ALANINE AMINOTRANSFERASE [1]: 42.83 u/L
ALKALINE PHOSPHATASE [1]: 328.5 u/L
ASPARTATE AMINOTRANSFERASE [1]: 78.33 u/L
BLOOD UREA NITROGEN [1]: 14.5 mg/dL
CHLORIDE [1]: 104.5 MEQ/L
CHOLESTEROL [1]: 78.67 mg/dL
CREATINE PHOSPHOKINASE [1]: 282.33 u/L
CREATININE [1]: 0.25 mg/dL
GLUCOSE [1]: 173.67 mg/dL
PHOSPHORUS [1]: 12.83 mg/dL
POTASSIUM [1]: 6.7 MEQ/L
SODIUM [1]: 145.83 MEQ/L
TOTAL BILIRUBIN [1]: 0.4 mg/dL
TOTAL PROTEIN [1]: 5.93 G/DL
ABSOLUTE BASOPHIL [2]: 28 cells/µL
BASOPHIL [2]: 0.26%
EOSINOPHIL [2]: 0.44%
ERYTHROCYTE COUNT [2]: 6.99 x10E6/uL
HEMATOCRIT [2]: 45.12%
HEMOGLOBIN [2]: 14.26 G/DL
LEUKOCYTE COUNT [2]: 9.42 x10E3/uL
LYMPHOCYTE [2]: 79.92%
MEAN CORPUSCULAR HEMOGLOBIN [2]: 20.44 pg
MEAN CORPUSCULAR HEMOGLOBIN CONCENTRATION [2]: 31.62 G/DL
MEAN CORPUSCULAR VOLUME [2]: 64.6 fL
MONOCYTE [2]: 2.2%
NEUTROPHIL [2]: 16.14%
PLATELET COUNT [2]: 1062.2 x10E3/uL
ALANINE AMINOTRANSFERASE [2]: 44 u/L
ALKALINE PHOSPHATASE [2]: 342.6 u/L
ASPARTATE AMINOTRANSFERASE [2]: 74.17 u/L
BLOOD UREA NITROGEN [2]: 13 mg/dL
CHLORIDE [2]: 103 MEQ/L
CHOLESTEROL [2]: 72.83 mg/dL
CREATINE PHOSPHOKINASE [2]: 184.67 u/L
CREATININE [2]: 0.47 mg/dL
GLUCOSE [2]: 168.17 mg/dL
PHOSPHORUS [2]: 12.27 mg/dL
POTASSIUM [2]: 6.98 MEQ/L
SODIUM [2]: 147 MEQ/L
TOTAL BILIRUBIN [2]: 0.65 mg/dL
TOTAL PROTEIN [2]: 6.23 G/DL
ABSOLUTE BASOPHIL [3]: 20 cells/µL
BASOPHIL [3]: 0.23%
EOSINOPHIL [3]: 0.43%
ERYTHROCYTE COUNT [3]: 6.67 x10E6/uL
HEMATOCRIT [3]: 42.8%
HEMOGLOBIN [3]: 13.83 G/DL
LEUKOCYTE COUNT [3]: 10.28 x10E3/uL
LYMPHOCYTE [3]: 78.07%
MEAN CORPUSCULAR HEMOGLOBIN [3]: 20.73 pg
MEAN CORPUSCULAR HEMOGLOBIN CONCENTRATION [3]: 32.33 G/DL
MEAN CORPUSCULAR VOLUME [3]: 64.2 fL
MONOCYTE [3]: 2.7%
NEUTROPHIL [3]: 16.57%
PLATELET COUNT [3]: 1248 x10E3/uL
ALANINE AMINOTRANSFERASE [3]: 44.67 u/L
ALKALINE PHOSPHATASE [3]: 316.67 u/L
ASPARTATE AMINOTRANSFERASE [3]: 75.67 u/L
BLOOD UREA NITROGEN [3]: 13.33 mg/dL
CHLORIDE [3]: 104.33 MEQ/L
CHOLESTEROL [3]: 64.33 mg/dL
CREATINE PHOSPHOKINASE [3]: 179 u/L
CREATININE [3]: 0.33 mg/dL
GLUCOSE [3]: 176.67 mg/dL
PHOSPHORUS [3]: 12.2 mg/dL
POTASSIUM [3]: 6.37 MEQ/L
SODIUM [3]: 146.33 MEQ/L
TOTAL BILIRUBIN [3]: 0.37 mg/dL
TOTAL PROTEIN [3]: 5.7 G/DL
ABSOLUTE BASOPHIL [4]: 56.7 cells/µL
BASOPHIL [4]: 0.6%
EOSINOPHIL [4]: 0.53%
ERYTHROCYTE COUNT [4]: 7.47 x10E6/uL
HEMATOCRIT [4]: 48.6%
HEMOGLOBIN [4]: 15.37 G/DL
LEUKOCYTE COUNT [4]: 8.81 x10E3/uL
LYMPHOCYTE [4]: 79.3%
MEAN CORPUSCULAR HEMOGLOBIN [4]: 20.53 pg
MEAN CORPUSCULAR HEMOGLOBIN CONCENTRATION [4]: 31.57 G/DL
MEAN CORPUSCULAR VOLUME [4]: 65.03 fL
MONOCYTE [4]: 2.53%
NEUTROPHIL [4]: 15.73%
PLATELET COUNT [4]: 1097 x10E3/uL
ALKALINE PHOSPHATASE [4]: 357.67 u/L
ASPARTATE AMINOTRANSFERASE [4]: 65 u/L
BLOOD UREA NITROGEN [4]: 13.33 mg/dL
CHLORIDE [4]: 104.67 MEQ/L
CHOLESTEROL [4]: 59.33 mg/dL
CREATINE PHOSPHOKINASE [4]: 158.33 u/L
CREATININE [4]: 0.43 mg/dL
GLUCOSE [4]: 175.33 mg/dL
PHOSPHORUS [4]: 12.03 mg/dL
POTASSIUM [4]: 7.37 MEQ/L
SODIUM [4]: 150.67 MEQ/L
TOTAL BILIRUBIN [4]: 0.33 mg/dL
TOTAL PROTEIN [4]: 6.43 G/DL
ABSOLUTE BASOPHIL [5]: 46.7 cells/µL
BASOPHIL [5]: 0.87%
EOSINOPHIL [5]: 0.43%
ERYTHROCYTE COUNT [5]: 5.74 x10E6/uL
HEMATOCRIT [5]: 35.5%
HEMOGLOBIN [5]: 11.63 G/DL
LEUKOCYTE COUNT [5]: 4.56 x10E3/uL
LYMPHOCYTE [5]: 64.07%
MEAN CORPUSCULAR HEMOGLOBIN [5]: 20.27 pg
MEAN CORPUSCULAR HEMOGLOBIN CONCENTRATION [5]: 32.8 G/DL
MEAN CORPUSCULAR VOLUME [5]: 61.93 fL
MONOCYTE [5]: 4.3%
NEUTROPHIL [5]: 29.23%
PLATELET COUNT [5]: 1116 x10E3/uL
ALANINE AMINOTRANSFERASE [5]: 30.67 u/L
ALKALINE PHOSPHATASE [5]: 216.33 u/L
ASPARTATE AMINOTRANSFERASE [5]: 71 u/L
BLOOD UREA NITROGEN [5]: 13 mg/dL
CHLORIDE [5]: 105 MEQ/L
CHOLESTEROL [5]: 81 mg/dL
CREATINE PHOSPHOKINASE [5]: 293 u/L
CREATININE [5]: 0.37 mg/dL
GLUCOSE [5]: 179 mg/dL
PHOSPHORUS [5]: 11.33 mg/dL
POTASSIUM [5]: 6.47 MEQ/L
SODIUM [5]: 142.33 MEQ/L
TOTAL BILIRUBIN [5]: 0.33 mg/dL
TOTAL PROTEIN [5]: 4.93 G/DL
ABSOLUTE BASOPHIL [6]: 80 cells/µL
BASOPHIL [6]: 0.75%
EOSINOPHIL [6]: 0.5%
ERYTHROCYTE COUNT [6]: 3.39 x10E6/uL
HEMATOCRIT [6]: 21.15%
HEMOGLOBIN [6]: 6.75 G/DL
LEUKOCYTE COUNT [6]: 9.48 x10E3/uL
LYMPHOCYTE [6]: 62%
MEAN CORPUSCULAR HEMOGLOBIN [6]: 20.05 pg
MEAN CORPUSCULAR HEMOGLOBIN CONCENTRATION [6]: 32.38 G/DL
MEAN CORPUSCULAR VOLUME [6]: 61.98 fL
MONOCYTE [6]: 3.5%
NEUTROPHIL [6]: 36%
PLATELET COUNT [6]: 1019.25 x10E3/uL
ALANINE AMINOTRANSFERASE [6]: 205.75 u/L
ALKALINE PHOSPHATASE [6]: 329.75 u/L
ASPARTATE AMINOTRANSFERASE [6]: 292.5 u/L
BLOOD UREA NITROGEN [6]: 38.75 mg/dL
CHLORIDE [6]: 103.5 MEQ/L
CHOLESTEROL [6]: 101 mg/dL
CREATINE PHOSPHOKINASE [6]: 255.75 u/L
CREATININE [6]: 0.33 mg/dL
GLUCOSE [6]: 163.25 mg/dL
PHOSPHORUS [6]: 10.22 mg/dL
POTASSIUM [6]: 5.38 MEQ/L
SODIUM [6]: 143.25 MEQ/L
TOTAL BILIRUBIN [6]: 0.42 mg/dL
TOTAL PROTEIN [6]: 4.65 G/DL
